{"source": "patent US11020414B2", "about": "“Antimicrobial compositions with cysteamine” (priority 2010, dated 2021)", "key": {"[1]": {"system": "Pseudomonas planktonic cells", "test": "Antibacterial activity of Tobramycin and cysteamine, separately and combined (FIG. 1)", "assay_type": "cell-based", "details": "FIG. 1b", "procedure": "FIG. 1A and FIG. 1B: provide a comparison of the antibacterial activity of Tobramycin and cysteamine (NM001) against Pseudomonas planktonic cells when administered separately, and in combined form. NM001 reduces the MIC of Tobramycin against planktonic cells by at least 4-fold (FIG. 1b)\n(§1) Both the bacterial inoculum and the antimicrobial agents, including the compounds structurally related to cysteamine, were added simultaneously to the plates. The plates were incubated at 37° C. for 24 h and the optical density was read at 625 nm on a microtitre plate reader (BioTek Powerwave XS, Winooski, USA). The MIC was obtained as the lowest concentration of antimicrobial showing total inhibition of bacterial growth."}, "[2]": {"system": "Pseudomonas aeruginosa Pa058", "test": "MIC determination, strain Pa058", "assay_type": "cell-based", "procedure": "(§2) The bacterial inoculum was established by the dilution method from actively-growing cultures in Mueller-Hinton (MH) broth, standardized with 0.5 McFarland turbidity standard as described in the CLSI method M26-A.\nas §1, with “The MIC was obtained as the lowest concentration of antimicrobial showing total inhibition of bacterial growth.” left out\nA number of compounds related in chemical structure to cysteamine were examined for antimicrobial activity; cystamine (dihydrochloride salt), taurine and 2,3-dimercaptosuccinic acid. Other compounds chemically related to cysteamine are known, but are toxic, and are therefore of no utility in a drug of this nature."}, "[3]": {"system": "P. aeruginosa PAO1 biofilms", "test": "Post-antimicrobial effect and metabolic activity of biofilms after treatment (FIG. 9, 10)", "assay_type": "cell-based, Pseudomonas aeruginosa", "details": "24 h following treatment of the biofilms", "procedure": "FIG. 9: is a graph showing the post-antimicrobial effect of cysteamine (NM001) in combination with Tobramycin versus P. aeruginosa PAO1 biofilms. […] The PAE was determined by transfer of 10 μl biofilm cultures into 90 μl sterile MH broth in triplicate in microtitre plates following treatment. Bacterial growth was followed on a BioTek plate reader for 24 h at 37° C. Microbial metabolic activity following treatment of the biofilms was determined using the same method as for PAE determination and adding 10% (v/v) of a fluorescent cell viability indicator, resazurin (Alamar Blue, Serotec), which detected microbial metabolic activity growth by increase in fluorescence. Fluorescence was measured over 24 h at 37° C. using a BioTek Synergy HT microplate reader (BioTek, Winooski, USA) at 530/590 nm."}, "[4]": {"system": "Pseudomonas aeruginosa Pa01", "test": "FIC index of combinations with conventional antibiotics, strain Pa01", "assay_type": "cell-based", "details": "strain Pa01 (Col^R), listed as Cysteamine (NM001)", "procedure": "as §2, §1\nThe FIC corresponds to an interaction coefficient indicating whether the combination of antimicrobial agents is synergistic, additive, antagonist or neutral. The FIC is determined by comparing the activity of an agent in combination (MIC of agent A+agent B) with the activity of the agent alone (MIC of agent A or agent B) as follow (Singh et al., 2000): FIC=MICA[combination]/MICA[alone]+MICB[combination]/MICB[alone]\nAdditive combinations of two antimicrobial agents are indicated by a FIC index of 1, whereas a FIC index<1 indicates synergistic combinations. Neutral combinations would give a FIC between 1 and 4, a FIC index higher than 4 indicates antagonist effects between the two antimicrobial agents.\nThe FIC was also calculated to assess the interaction of two antimicrobial agents in combination against bacterial samples."}, "[5]": {"system": "P. aeruginosa PAO1 biofilm", "test": "Minimum biofilm eradication concentration against established biofilm (FIG. 4)", "assay_type": "cell-based, Pseudomonas aeruginosa"}}, "note": "“And” between values parts separate entries of the source, which are not always exact repeats. Equal entries are not always repeated.", "data": [{"smiles": "NCCS", "note": "[Cysteamine, cysteamine]", "values": [{"measurement": "reduction of the MIC of Tobramycin by NM001", "setting": "[1]", "result": "at least 4 fold"}, {"measurement": "MIC50", "setting": "[2]", "result": 500, "unit": "µg/mL"}, {"measurement": "MIC90", "setting": "[2]", "result": 1000, "unit": "µg/mL"}, {"measurement": "MIC", "setting": "[2]; read-out: MIC100", "result": 1000, "unit": "µg/mL"}, {"measurement": "post-antimicrobial effect (delayed bacterial growth, reduced metabolic activity of the biofilm)", "setting": "[3]", "result": "significant PAE"}, {"measurement": "FICI (Additive) Col", "setting": "[4]; in combination with Colistin", "result": "0.53 and 0.56"}, {"measurement": "FICI (Synergy) Col", "setting": "[4]; in combination with Colistin", "result": "0.38 and 0.31 and 0.25"}, {"measurement": "FICI (Additive) Gent", "setting": "[4]; in combination with Gentamicin", "result": "0.5 and 0.53 and 0.63"}, {"measurement": "FICI (Synergy) Gent", "setting": "[4]; in combination with Gentamicin", "result": 0.38}, {"measurement": "FICI (Additive) Tob", "setting": "[4]; in combination with Tobramycin", "result": 0.63}, {"measurement": "FICI (Synergy) Tob", "setting": "[4]; in combination with Tobramycin", "result": "0.31 and 0.28 and 0.25"}, {"measurement": "minimum biofilm eradication concentration (MBEC), agent alone", "setting": "[5]", "result": 1000, "unit": "µg/mL"}]}]}
